# Where “and” joins values, the source holds several entries; their conditions need not be identical. Equal entries are not always repeated.
# System: WT HeLa cells expressing GFP-TDP-4FL
# Test: Flow cytometry of GFP-TDP-4FL integrated fluorescence, WT HeLa
# Format: cell-based
# Conditions: for Integrated Fluorescence WT (Normalized to CHX): replicate values
# Procedure, shortened: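 Trypsinised cells resuspended in colorless DMEM with 2% FBS and analysed by flow cytometry. Integrated fluorescence taken as percent GFP-positive cells multiplied by GFP median fluorescence.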
smiles,measurement,setting,value
COCCNC(=O)NC(=O)COC(=O)c1cc([N+](=O)[O-])ccc1Sc1nc(C)cs1 [UP109],Integrated Fluorescence WT (Normalized to CHX),5μM compound with CHX,1.011 and 0.958 and 1.026 and 0.960 and 0.926 and 0.822 and 0.883 and 0.671
same,Integrated Fluorescence WT (Normalized to CHX),20μM compound with CHX,0.950 and 0.938 and 0.974 and 0.870 and 0.844 and 0.840 and 0.850 and 0.749
same,clearance of GFP-TDP-4FL aggregates (integrated fluorescence),"MG132, then CHX with 5 or 20 μM activator",enhances clearance of TDP-4FL inclusions
